Experimental data from patent US20230348369A1 (Cytokinetics, Inc., priority 2020, published 2023).
Where two headings read alike, the source gives them in different places.

Biological target: human NAMPT (Homo sapiens, UniProt P43490)
Test: Human recombinant enzyme assay (NMN fluorescence biochemical assay, activation of NAMPT)
Outline: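 Activation of recombinant human NAMPT (6 nM) with 2.5 mM ATP, 20 μM PRPP and 150 μM nicotinamide in 50 mM HEPES pH 7.2, 1 mM DTT, 1 mM CHAPS, 50 mM NaCl, 100 mM MgCl2; 60 min, ambient temperature. NMN formed was derivatized with acetophenone/KOH/formic acid, fluorescence read at 355/460 nm after 40 min.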

[1] = Table A, human recombinant NAMPT, NMN formation, 60 min
[2] = Table A, human recombinant NAMPT, NMN formation, 60 min, read-out: EC50 Human

Chain of human NAMPT (P43490 whole entry): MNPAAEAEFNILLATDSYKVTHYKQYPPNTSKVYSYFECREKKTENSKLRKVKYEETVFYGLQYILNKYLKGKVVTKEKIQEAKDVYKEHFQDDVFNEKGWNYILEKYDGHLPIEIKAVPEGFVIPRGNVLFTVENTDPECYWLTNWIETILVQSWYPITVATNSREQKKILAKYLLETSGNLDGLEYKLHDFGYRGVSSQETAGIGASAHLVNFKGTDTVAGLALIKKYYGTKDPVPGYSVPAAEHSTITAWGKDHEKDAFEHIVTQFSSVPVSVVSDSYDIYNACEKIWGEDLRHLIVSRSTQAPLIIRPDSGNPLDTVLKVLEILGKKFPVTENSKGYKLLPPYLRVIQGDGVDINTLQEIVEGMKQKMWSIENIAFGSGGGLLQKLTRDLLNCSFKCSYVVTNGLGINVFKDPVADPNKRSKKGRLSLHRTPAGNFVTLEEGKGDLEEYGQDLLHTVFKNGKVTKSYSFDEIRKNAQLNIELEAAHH

| Compound | AC1.4 Human [1] | EC50 [2] | EC50 | EC50 (read-out: EC50 Human, Table A, human recombinant NAMPT, NMN formation, 60 min) |
| --- | --- | --- | --- | --- |
| COC(=O)C1CCC(S(=O)(=O)N2CC3(CC(NC(=O)NCc4ccc(OC)cc4)C3)C2)CC1 (centres unmarked) [Compound 131, methyl 4-((6-(3-(4-methoxybenzyl)ureido)-2-azaspiro[3.3]heptan-2-yl)sulfonyl)cyclohexane-1-carboxylate] | 17.6 µM | 48.5 µM | – | – |
| COc1ccc(CNC(=O)NC2CC3(C2)CN(C(=O)Nc2cccc(C#N)n2)C3)cc1 [Compound 132, N-(6-cyanopyridin-2-yl)-6-(3-(4-methoxybenzyl)ureido)-2-azaspiro[3.3]heptane-2-carboxamide] | 15.0 µM | – | 42.8 µM | – |
| COc1ccc(CNC(=O)NC2CC3(C2)CN(C(=O)Nc2cnc(C)nc2)C3)cc1 [Compound 133, 6-(3-(4-methoxybenzyl)ureido)-N-(2-methylpyrimidin-5-yl)-2-azaspiro[3.3]heptane-2-carboxamide] | 17.5 µM | 61.2 µM | – | – |
| COc1ccc(CNC(=O)NC2CC3(C2)CN(C(=O)CCc2ccccc2Cl)C3)cc1 [Compound 135, 1-(2-(3-(2-chlorophenyl)propanoyl)-2-azaspiro[3.3]heptan-6-yl)-3-(4-methoxybenzyl) urea] | 3.7 µM | – | 38.5 µM | – |
| COc1ccc(CNC(=O)NC2CC3(C2)CN(C(=O)C2CCCN(C(=O)OC(C)(C)C)C2)C3)cc1 (centres unmarked) [Compound 136, tert-butyl 3-(6-(3-(4-methoxybenzyl)ureido)-2-azaspiro[3.3]heptane-2-carbonyl)piperidine-1-carboxylate] | 9.8 µM | 57.7 µM | – | – |
| COc1ccc(CNC(=O)NC2CC3(C2)CN(C(=O)C2CCCc4ccccc42)C3)cc1 (centres unmarked) [Compound 137, 1-(4-methoxybenzyl)-3-(2-(1,2,3,4-tetrahydronaphthalene-1-carbonyl)-2-azaspiro[3.3]heptan-6-yl)urea] | 13.8 µM | 53.3 µM | – | – |
| COc1ccc(CNC(=O)NC2CC3(C2)CN(C(=O)c2ccncc2)C3)cc1 [Compound 139, 1-(2-isonicotinoyl-2-azaspiro[3.3]heptan-6-yl)-3-(4-methoxybenzyl)urea] | 16.4 µM | 44.9 µM | – | – |
| COc1ccc(CNC(=O)NC2CC3(C2)CN(C(=O)c2ccccc2)C3)cc1 [Compound 141, 1-(2-benzoyl-2-azaspiro[3.3]heptan-6-yl)-3-(4-methoxybenzyl)urea] | 4.7 µM | 49.4 µM | – | – |
| COc1ccc(CNC(=O)NC2CC3(C2)CN(C(=O)C(C)(C)c2ccccc2)C3)cc1 [Compound 142, 1-(4-methoxybenzyl)-3-(2-(2-methyl-2-phenylpropanoyl)-2-azaspiro[3.3]heptan-6-yl)urea] | 1.8 µM | 33.3 µM | – | – |
| COc1ccc(CNC(=O)NC2CC3(C2)CN(C(=O)C2(c4ccccc4)CC2)C3)cc1 [Compound 143, 1-(4-methoxybenzyl)-3-(2-(1-phenylcyclopropane-1-carbonyl)-2-azaspiro[3.3]heptan-6-yl)urea] | 8.0 µM | 45.6 µM | – | – |
| COc1ccc(CNC(=O)NC2CC3(C2)CN(C(=O)c2ccc(=O)n(C)c2)C3)cc1 [Compound 144, 1-(4-methoxybenzyl)-3-(2-(1-methyl-6-oxo-1,6-dihydropyridine-3-carbonyl)-2-azaspiro[3.3]heptan-6-yl)urea] | 16.0 µM | 54 µM | – | – |
| COc1ccc(CNC(=O)NC2CC3(C2)CN(C(=O)c2cccc(C)c2)C3)cc1 [Compound 146, 1-(4-methoxybenzyl)-3-(2-(3-methylbenzoyl)-2-azaspiro[3.3]heptan-6-yl)urea] | 4.1 µM | 38.7 µM | – | – |
| COc1ccc(CNC(=O)NC2CC3(C2)CN(C(=O)c2ccc(C(F)(F)F)cc2)C3)cc1 [Compound 147, 1-(4-methoxybenzyl)-3-(2-(4-(trifluoromethyl)benzoyl)-2-azaspiro[3.3]heptan-6-yl)urea] | 5.8 µM | 58.2 µM | – | – |
| COc1ccc(CNC(=O)NC2CC3(C2)CN(C(=O)c2ccccc2C)C3)cc1 [Compound 148, 1-(4-methoxybenzyl)-3-(2-(2-methylbenzoyl)-2-azaspiro[3.3]heptan-6-yl)urea] | 3.9 µM | 47.1 µM | – | – |
| COc1ccc(CNC(=O)NCCCCCCOc2ccccc2)cc1 [Compound 150, 1-(4-methoxybenzyl)-3-(6-phenoxyhexyl)urea] | 2.0 µM | 5.3 µM | – | – |
| CC(C)(C)OC(=O)N1CC[C@]2(C1)C[C@@H](NC(=O)NCc1ccc(Cl)cc1)C2 [Compound 151, tert-butyl (2r,4s)-2-(3-(4-chlorobenzyl)ureido)-6-azaspiro[3.4]octane-6-carboxylate] | 6.8 µM | 41.2 µM | – | – |
| CC(C)(C)OC(=O)N1CC[C@]2(C1)C[C@H](NC(=O)NCc1ccc(Cl)cc1)C2 [Compound 152, tert-butyl (2s,4r)-2-(3-(4-chlorobenzyl)ureido)-6-azaspiro[3.4]octane-6-carboxylate] | 7.9 µM | 38.3 µM | – | – |

| Compound | AC1.4 Human [1] | EC50 [2] | EC50 | EC50 (read-out: EC50 Human, Table A, human recombinant NAMPT, NMN formation, 60 min) |
| --- | --- | --- | --- | --- |
| COc1ccc(CNC(=O)NC2CC3(C2)CN(C(=O)C(C)(C)c2ccc(C)cc2)C3)cc1 [Compound 153, 1-(4-methoxybenzyl)-3-(2-(2-methyl-2-(p-tolyl)propanoyl)-2-azaspiro[3.3]heptan-6-yl)urea] | 2.3 µM | 26.3 µM | – | – |
| COc1ccc(CNC(=O)NC2CC3(C2)CN(C(=O)C(C)(C)c2cccc(C)c2)C3)cc1 [Compound 154, 1-(4-methoxybenzyl)-3-(2-(2-methyl-2-(m-tolyl)propanoyl)-2-azaspiro[3.3]heptan-6-yl)urea] | 2.1 µM | 31 µM | – | – |
| COc1ccc(CNC(=O)NC2CC3(C2)CN(C(=O)c2ccc(OC)cc2)C3)cc1 [Compound 155, 1-(2-(4-methoxybenzoyl)-2-azaspiro[3.3]heptan-6-yl)-3-(4-methoxybenzyl)urea] | 2.7 µM | 52.1 µM | – | – |
| COc1ccc(CNC(=O)NC2CC3(C2)CN(C(=O)c2ccc(C#N)cc2)C3)cc1 [Compound 156, 1-(2-(4-cyanobenzoyl)-2-azaspiro[3.3]heptan-6-yl)-3-(4-methoxybenzyl)urea] | 11.0 µM | 45.8 µM | – | – |
| COc1ccc(CNC(=O)NC2CC3(C2)CN(C(=O)c2ccc(C(C)(C)O)cc2)C3)cc1 [Compound 157, 1-(2-(4-(2-hydroxypropan-2-yl)benzoyl)-2-azaspiro[3.3]heptan-6-yl)-3-(4-methoxybenzyl)urea] | 4.1 µM | 47.6 µM | – | – |
| COc1ccc(CNC(=O)NC2CC3(C2)CN(C(=O)c2ccc(Cl)cc2)C3)cc1 [Compound 158, 1-(2-(4-chlorobenzoyl)-2-azaspiro[3.3]heptan-6-yl)-3-(4-methoxybenzyl)urea] | 2.7 µM | 39.1 µM | – | – |
| Cc1ccc(C(=O)N2CC[C@]3(C2)C[C@@H](NC(=O)NCc2ccc(Cl)cc2)C3)cc1 [Compound 159, 1-(4-chlorobenzyl)-3-((2r,4s)-6-(4-methylbenzoyl)-6-azaspiro[3.4]octan-2-yl)urea] | 8.7 µM | 23.1 µM | – | – |
| Cc1cc(C(=O)N2CC[C@]3(C2)C[C@@H](NC(=O)NCc2ccc(Cl)cc2)C3)ccn1 [Compound 160, 1-(4-chlorobenzyl)-3-((2r,4s)-6-(2-methylisonicotinoyl)-6-azaspiro[3.4]octan-2-yl)urea] | 13.6 µM | 42.6 µM | – | – |
| COc1ccc(C(=O)N2CC[C@]3(C2)C[C@@H](NC(=O)NCc2ccc(Cl)cc2)C3)cc1 [Compound 163, 1-(4-chlorobenzyl)-3-((2r,4s)-6-(4-methoxybenzoyl)-6-azaspiro[3.4]octan-2-yl)urea] | 12.4 µM | 27.9 µM | – | – |
| COc1ccc(C(=O)N2CC[C@]3(C2)C[C@H](NC(=O)NCc2ccc(Cl)cc2)C3)cc1 [Compound 165, 1-(4-chlorobenzyl)-3-((2s,4r)-6-(4-methoxybenzoyl)-6-azaspiro[3.4]octan-2-yl)urea] | 15.9 µM | 49.4 µM | – | – |
| Cc1cnccc1C(=O)N1CC[C@]2(C1)C[C@@H](NC(=O)NCc1ccc(Cl)cc1)C2 [Compound 166, 1-(4-chlorobenzyl)-3-((2r,4s)-6-(3-methylisonicotinoyl)-6-azaspiro[3.4]octan-2-yl)urea] | 14.2 µM | 42.8 µM | – | – |
| O=C(NCc1ccc(Cl)cc1)N[C@H]1C[C@]2(CCN(C(=O)c3ccc(F)cc3)C2)C1 [Compound 167, 1-(4-chlorobenzyl)-3-((2r,4s)-6-(4-fluorobenzoyl)-6-azaspiro[3.4]octan-2-yl)urea] | 11.8 µM | 27.5 µM | – | – |
| COC(=O)C1CC2(CC(NC(=O)NCc3ccc(Cl)cc3)C2)C1 (centres unmarked) [Compound 168, methyl 6-(3-(4-chlorobenzyl)ureido)spiro[3.3]heptane-2-carboxylate] | 9.5 µM | – | – | 39.3 µM |
| CC(C)c1cccc(C(=O)N2CC[C@]3(C2)C[C@@H](NC(=O)NCc2ccc(Cl)cc2)C3)c1 [Compound 169, 1-(4-chlorobenzyl)-3-((2r,4s)-6-(3-isopropylbenzoyl)-6-azaspiro[3.4]octan-2-yl)urea] | 7.1 µM | 9.3 µM | – | – |
| O=C(NCc1ccc(Cl)cc1)N[C@H]1C[C@]2(CCN(c3ncccn3)C2)C1 [Compound 170, 1-(4-chlorobenzyl)-3-((2s,4r)-6-(pyrimidin-2-yl)-6-azaspiro[3.4]octan-2-yl)urea] | 15.1 µM | 46.9 µM | – | – |
| Cc1cc(N2CC[C@]3(C2)C[C@@H](NC(=O)NCc2ccc(Cl)cc2)C3)ccn1 [Compound 171, 1-(4-chlorobenzyl)-3-((2r,4s)-6-(2-methylpyridin-4-yl)-6-azaspiro[3.4]octan-2-yl)urea] | 17.3 µM | 24.9 µM | – | – |
| CCc1cccc(C(=O)N2CC3(CC(NC(=O)NCc4ccc(OC)cc4)C3)C2)c1 [Compound 172, 1-(2-(3-ethylbenzoyl)-2-azaspiro[3.3]heptan-6-yl)-3-(4-methoxybenzyl)urea] | 1.9 µM | – | 22.9 µM | – |
